pKi: −log10 of the molar value. In brackets after ≈: the same amount, converted by molar mass. Entries after “also recorded” stand apart in the source; their conditions may differ. Bridge positions count the residues as written; N and C are the ends. Peptide text beside a SMILES is read from it.
Experiments:
tryptase = biological target: T1, tryptase (Homo sapiens, UniProt Q15661); assay: Tryptase inhibition assay; format: biochemical; conditions: substrate Boc-Phe-Ser-Arg-NHMec 50 µM, peptide 0.1-100 µM, tryptase buffer pH 7.6, Morrison plot; average of three independent experiments
T1 construct: purchased Calbiochem, UK
Method: (§1) The trypsin, chymotrypsin inhibition tests were performed as described previously. 10 µL tryptase (1 mg/mL, Calbiochem, UK) was added to the wells of a micro-titer plate containing 180 µL substrate (Boc-Phe-Ser-Arg-NHMec, obtained from Bachem, UK) (50 µM) and 20 µL synthetic replicates (0.1–100 µM) in a tryptase buffer, pH7.6, containing 0.05 M Tris, 0.15 M NaCl, and 0.2% (w/v) polyethylene glycol 6000 (final volume 210 µL).
(§2) The rate of hydrolysis of the substrate was monitored by measuring the rate of increase of fluorescence due to the release of 7–amino–4–methylcoumarin (AMC) at 460 nm (excitation 360 nm) in a FLUOstar OPTIMA multi-well plate reader. The inhibition curves of the trypsin/chymotrypsin inhibition assay and tryptase inhibition assay were formed as outlined before.
(§3) The progress curves for the hydrolysis of the fluorogenic substrate were used to estimate an initial rate (Vi) to generate the Morrison plots. All of the progress curves and corresponding Morrison plots in the presence of each peptide of different concentrations are shown in Figure S4.

chymotrypsin = chymotrypsin (Bos taurus, UniProt P00766); assay: Chymotrypsin inhibition assay; format: biochemical; conditions: fluorogenic substrate, AMC release (ex 360/em 460 nm), Morrison plot; average of three independent experiments
Method: as §1, §2
as §3, with “PPF-BBI and its analogues were tested for inhibitory activity against trypsin, chymotrypsin and tryptase, respectively. The” for “The”

C. albicans (NCYC 1467) = format: cell-based
Method: (§4) The MIC and MBC of the synthetic peptides were determined as previously described, using S. aureus (NCTC 10788), E. coli (NCTC 10418) and C. albicans (NCYC 1467), together with two species of resistant micro-organisms, methicillin-resistant S. aureus (MRSA) (ATCC 12493) and P. aeruginosa (ATCC 27853).

[1] = test system: methicillin-resistant S. aureus (MRSA) (ATCC 12493); format: cell-based
Method: as §4

[2] = test system: P. aeruginosa (ATCC 27853); format: cell-based
Method: as §4

E. coli (NCTC 10418) = format: cell-based
Method: as §4

S. aureus (NCTC 10788) = format: cell-based
Method: as §4

trypsin = biological target: T2, trypsin (Bos taurus, UniProt P00760); assay: Trypsin inhibition assay; format: biochemical
T2 construct: gene PRSS1
T2 sequence (P00760 24-246): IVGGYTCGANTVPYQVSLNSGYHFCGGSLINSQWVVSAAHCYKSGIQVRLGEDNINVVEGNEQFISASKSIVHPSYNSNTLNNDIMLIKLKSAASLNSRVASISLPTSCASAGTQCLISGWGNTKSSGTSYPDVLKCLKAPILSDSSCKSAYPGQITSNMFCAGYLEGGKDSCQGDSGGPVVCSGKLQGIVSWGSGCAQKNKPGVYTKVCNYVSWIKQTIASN
Method: as §1
The inhibition curves of the trypsin/chymotrypsin inhibition assay and tryptase inhibition assay were formed as outlined before.
as §3

horse erythrocytes = assay: Haemolysis test; format: cell-based; conditions: 2% suspension of horse erythrocytes, 512 to 1 µM peptide, 4 h; 2% Triton X-100 = 100% haemolysis
Method: The haemolytic activity of each peptide was measured by incubating a range of final peptide concentrations from 512 to 1 µM in a two-fold dilution in a 2% suspension of horse erythrocytes, as described in a previous study.
Figure 4 (a) The cell viability of the cancer cell lines H460, H157, H23, H838, HT-29, PC-3, U251MG and HMEC-1 at 4 mM 5-FU (stripe bar), 100 µM and 10 µM PPF-BBI, F^8-PPF-BBI, K^16-PPF-BBI and Tat-loop. The control represents the cell viability without any treatments. The statistical significance of difference was analyzed by a one-way ANOVA (* p < 0.05, **** p < 0.0001). (b) The haemolysis rates of PPF-BBI, F^8-PPF-BBI, K^16-PPF-BBI and Tat-loop on erythrocytes after being incubated for 4 h. The incubation of erythrocytes with 2% (v/v) Triton X-100 was designated as a positive control (100% haemolysis).

T1 sequence (Q15661 31-275): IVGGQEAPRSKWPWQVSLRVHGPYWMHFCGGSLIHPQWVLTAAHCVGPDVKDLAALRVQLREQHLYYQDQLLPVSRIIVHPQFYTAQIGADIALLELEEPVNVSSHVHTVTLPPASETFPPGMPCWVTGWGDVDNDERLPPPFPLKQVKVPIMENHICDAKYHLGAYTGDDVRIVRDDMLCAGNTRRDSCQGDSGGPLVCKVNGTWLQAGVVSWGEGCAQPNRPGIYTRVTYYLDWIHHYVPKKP

For `CC[C@H](C)[C@@H]1NC(=O)[C@H](CO)NC(=O)[C@H](Cc2ccccc2)NC(=O)[C@H]([C@@H](C)O)NC(=O)[C@H](Cc2c[nH]c3ccccc23)NC(=O)[C@@H](NC(=O)CNC(=O)[C@H](CCCNC(=N)N)NC(=O)[C@H](CC(C)C)NC(=O)[C@H](C)N)CSSC[C@@H](C(=O)N2CCC[C@H]2C(N)=O)NC(=O)[C@@H]2CCCN2C(=O)[C@H](CCCCN)NC(=O)[C@@H]2CCCN2C(=O)[C@@H]2CCCN2C1=O` [F^8-PPF-BBI] (H-ALRGCWTFSIPPKPCP-NH2; disulfide 5-15), the “Ki (µM) of Tryptase” value (tryptase) was “N.I.*”, the Ki (chymotrypsin) was 0.85 µM and the MBC (C. albicans (NCYC 1467)) was greater than 512 µM. The MIC (C. albicans (NCYC 1467)) was greater than 512 µM, the MBC [1] was greater than 512 µM and the MIC [1] was greater than 512 µM. For the same compound, the MBC [2] was greater than 512 µM, the MIC [2] was greater than 512 µM and the MBC (E. coli (NCTC 10418)) was greater than 512 µM. The MIC (E. coli (NCTC 10418)) was greater than 512 µM, the MBC (S. aureus (NCTC 10788)) was greater than 512 µM and the MIC (S. aureus (NCTC 10788)) was greater than 512 µM. For the same compound, the “Ki (µM) of Trypsin” value (trypsin; fluorogenic substrate, AMC release (ex 360/em 460 nm), Morrison plot, average of three independent experiments) was “N.I.*”.

`CC[C@H](C)[C@@H]1NC(=O)[C@H](CO)NC(=O)[C@H](CCCCN)NC(=O)[C@H]([C@@H](C)O)NC(=O)[C@H](Cc2c[nH]c3ccccc23)NC(=O)[C@@H](NC(=O)CNC(=O)[C@H](CCCNC(=N)N)NC(=O)[C@H](CC(C)C)NC(=O)[C@H](C)N)CSSC[C@@H](C(=O)N[C@@H](CCCCN)C(N)=O)NC(=O)[C@@H]2CCCN2C(=O)[C@H](CCCCN)NC(=O)[C@@H]2CCCN2C(=O)[C@@H]2CCCN2C1=O` [K^16-PPF-BBI] (H-ALRGCWTKSIPPKPCK-NH2; disulfide 5-15) was tested, and the Ki (tryptase) was 9.67 µM, the “Ki (µM) of Chymotrypsin” value (chymotrypsin) was “N.I.*” and the MBC (C. albicans (NCYC 1467)) was 128 µM (≈ 228 µg/mL). For the same compound, the MIC (C. albicans (NCYC 1467)) was 128 µM (≈ 228 µg/mL), the MBC [1] was 512 µM (≈ 912 µg/mL) and the MIC [1] was 512 µM (≈ 912 µg/mL). The MBC [2] was 512 µM (≈ 912 µg/mL), the MIC [2] was 512 µM (≈ 912 µg/mL) and the MBC (E. coli (NCTC 10418)) was 128 µM (≈ 228 µg/mL). For the same compound, the MIC (E. coli (NCTC 10418)) was 128 µM (≈ 228 µg/mL), the MBC (S. aureus (NCTC 10788)) was 64 µM (≈ 114 µg/mL) and the MIC (S. aureus (NCTC 10788)) was 64 µM (≈ 114 µg/mL). For the same compound, the pKi (trypsin) was 6.95.

In the case of `CC[C@H](C)[C@@H]1NC(=O)[C@H](CO)NC(=O)[C@H](CCCCN)NC(=O)[C@H]([C@@H](C)O)NC(=O)[C@H](Cc2c[nH]c3ccccc23)NC(=O)[C@@H](NC(=O)CNC(=O)[C@H](CCCNC(=N)N)NC(=O)[C@H](CC(C)C)NC(=O)[C@H](C)N)CSSC[C@@H](C(=O)N2CCC[C@H]2C(N)=O)NC(=O)[C@@H]2CCCN2C(=O)[C@H](CCCCN)NC(=O)[C@@H]2CCCN2C(=O)[C@@H]2CCCN2C1=O` [PPF-BBI] (H-ALRGCWTKSIPPKPCP-NH2; disulfide 5-15), the Ki (tryptase) was 30.7 µM, the “Ki (µM) of Chymotrypsin” value (chymotrypsin) was “N.I.*” and the MBC (C. albicans (NCYC 1467)) was 512 µM (≈ 897 µg/mL). It also gave an MIC (C. albicans (NCYC 1467)) of 512 µM (≈ 897 µg/mL), an MBC [1] greater than 512 µM and an MIC [1] greater than 512 µM. It also gave an MBC [2] greater than 512 µM, an MIC [2] greater than 512 µM and an MBC (E. coli (NCTC 10418)) of 128 µM (≈ 224 µg/mL). The MIC (E. coli (NCTC 10418)) was 128 µM (≈ 224 µg/mL), the MBC (S. aureus (NCTC 10788)) was 128 µM (≈ 224 µg/mL) and the MIC (S. aureus (NCTC 10788)) was 128 µM (≈ 224 µg/mL). For the same compound, the pKi (trypsin) was 6.77.

For `CC[C@H](C)[C@@H]1NC(=O)[C@H](CO)NC(=O)[C@H](CCCCN)NC(=O)[C@H]([C@@H](C)O)NC(=O)[C@H](Cc2c[nH]c3ccccc23)NC(=O)[C@@H](N)CSSC[C@@H](C(=O)O)NC(=O)[C@@H]2CCCN2C(=O)[C@H](CCCCN)NC(=O)[C@@H]2CCCN2C(=O)[C@@H]2CCCN2C1=O` [TIL, reference compound], the “Ki (µM) of Tryptase” value (tryptase) was “lost their inhibitory activity; also recorded: N.I.*”, the “Ki (µM) of Chymotrypsin” value (chymotrypsin) was “N.I.*” and the MBC (C. albicans (NCYC 1467)) was greater than 512 µM. It also gave an MIC (C. albicans (NCYC 1467)) greater than 512 µM, an MBC [1] greater than 512 µM and an MIC [1] greater than 512 µM. For the same compound, the MBC [2] was greater than 512 µM, the MIC [2] was greater than 512 µM and the MBC (E. coli (NCTC 10418)) was greater than 512 µM. For the same compound, the MIC (E. coli (NCTC 10418)) was greater than 512 µM, the MBC (S. aureus (NCTC 10788)) was greater than 512 µM and the MIC (S. aureus (NCTC 10788)) was greater than 512 µM.

`N=C(N)NCCC[C@H](NC(=O)[C@H](CCCNC(=N)N)NC(=O)[C@H](CCCNC(=N)N)NC(=O)[C@H](CCC(N)=O)NC(=O)[C@H](CCCNC(=N)N)NC(=O)[C@H](CCCNC(=N)N)NC(=O)[C@H](CCCCN)NC(=O)[C@H](CCCCN)NC(=O)[C@@H](N)CCCNC(=N)N)C(=O)O` [Tat, reference compound] was tested, and the MBC (C. albicans (NCYC 1467)) was greater than 512 µM, the MIC (C. albicans (NCYC 1467)) was greater than 512 µM and the MBC [1] was greater than 512 µM. It also gave an MIC [1] greater than 512 µM, an MBC [2] greater than 512 µM and an MIC [2] greater than 512 µM. It also gave an MBC (E. coli (NCTC 10418)) of 256 µM (≈ 343 µg/mL), an MIC (E. coli (NCTC 10418)) of 256 µM (≈ 343 µg/mL) and an MBC (S. aureus (NCTC 10788)) of 512 µM (≈ 686 µg/mL). It also gave an MIC (S. aureus (NCTC 10788)) of 512 µM (≈ 686 µg/mL).

For `CC[C@H](C)[C@@H]1NC(=O)[C@H](CO)NC(=O)[C@H](CCCCN)NC(=O)[C@H]([C@@H](C)O)NC(=O)[C@H](Cc2c[nH]c3ccccc23)NC(=O)[C@@H](NC(=O)[C@H](CCCNC(=N)N)NC(=O)[C@H](CCCNC(=N)N)NC(=O)[C@H](CCCNC(=N)N)NC(=O)[C@H](CCC(N)=O)NC(=O)[C@H](CCCNC(=N)N)NC(=O)[C@H](CCCNC(=N)N)NC(=O)[C@H](CCCCN)NC(=O)[C@H](CCCCN)NC(=O)[C@@H](N)CCCNC(=N)N)CSSC[C@@H](C(=O)O)NC(=O)[C@@H]2CCCN2C(=O)[C@H](CCCCN)NC(=O)[C@@H]2CCCN2C(=O)[C@@H]2CCCN2C1=O` [Tat-loop] (H-RKKRRQRRRCWTKSIPPKPC-OH; disulfide 10-20), the Haemolytic activity (horse erythrocytes) was “low haemolytic activity”, the “Ki (µM) of Tryptase” value (tryptase) was “lost their inhibitory activity; also recorded: N.I.*” and the “Ki (µM) of Chymotrypsin” value (chymotrypsin) was “N.I.*”. It also gave an MBC (C. albicans (NCYC 1467)) of 8 µM (≈ 20.6 µg/mL), an MIC (C. albicans (NCYC 1467)) of 4 µM (≈ 10.3 µg/mL) and an MBC [1] of 512 µM (≈ 1320 µg/mL). It also gave an MIC [1] of 256 µM (≈ 660 µg/mL), an MBC [2] of 256 µM (≈ 660 µg/mL) and an MIC [2] of 256 µM (≈ 660 µg/mL). It also gave an MBC (E. coli (NCTC 10418)) of 128 µM (≈ 330 µg/mL), an MIC (E. coli (NCTC 10418)) of 128 µM (≈ 330 µg/mL) and an MBC (S. aureus (NCTC 10788)) of 128 µM (≈ 330 µg/mL). It also gave an MIC (S. aureus (NCTC 10788)) of 128 µM (≈ 330 µg/mL) and a pKi (trypsin) of 6.22.

— publication PMC6681222, “Discovery and Rational Design of a Novel Bowman-Birk Related Protease Inhibitor” (Biomolecules, 2019)
